Test results from patent US10526316B2, “Quinoxaline and pyridopyrazine derivatives as PI3Kβ inhibitors” (Janssen Pharmaceutica NV, priority 2015, dated 2020).
Read-outs that look alike come from different tables or passages of the source.

Tests used:
PI3Kβ = biological target: T1, PI3Kβ (Homo sapiens, UniProt P42338); experiment: Enzyme binding assay (KINOMEscan, DiscoveRx); conditions: PIK3Cβ_h, read-out: Kd PIK3Cβ_h
T1 construct: purchased DiscoveRx Corporation, San Diego (contract service, KINOMEscan)
Method in brief: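 Reported Kd (nM) reflects inhibitor binding to the kinase, as measured by KINOMEscan technology.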

PI3Kδ = biological target: T2, PI3Kδ (Homo sapiens, UniProt O00329); experiment: Enzyme binding assay (KINOMEscan, DiscoveRx); conditions: PIK3Cδ_h
T2 construct: purchased DiscoveRx Corporation, San Diego (contract service, KINOMEscan)
T2 sequence (O00329 1-1044): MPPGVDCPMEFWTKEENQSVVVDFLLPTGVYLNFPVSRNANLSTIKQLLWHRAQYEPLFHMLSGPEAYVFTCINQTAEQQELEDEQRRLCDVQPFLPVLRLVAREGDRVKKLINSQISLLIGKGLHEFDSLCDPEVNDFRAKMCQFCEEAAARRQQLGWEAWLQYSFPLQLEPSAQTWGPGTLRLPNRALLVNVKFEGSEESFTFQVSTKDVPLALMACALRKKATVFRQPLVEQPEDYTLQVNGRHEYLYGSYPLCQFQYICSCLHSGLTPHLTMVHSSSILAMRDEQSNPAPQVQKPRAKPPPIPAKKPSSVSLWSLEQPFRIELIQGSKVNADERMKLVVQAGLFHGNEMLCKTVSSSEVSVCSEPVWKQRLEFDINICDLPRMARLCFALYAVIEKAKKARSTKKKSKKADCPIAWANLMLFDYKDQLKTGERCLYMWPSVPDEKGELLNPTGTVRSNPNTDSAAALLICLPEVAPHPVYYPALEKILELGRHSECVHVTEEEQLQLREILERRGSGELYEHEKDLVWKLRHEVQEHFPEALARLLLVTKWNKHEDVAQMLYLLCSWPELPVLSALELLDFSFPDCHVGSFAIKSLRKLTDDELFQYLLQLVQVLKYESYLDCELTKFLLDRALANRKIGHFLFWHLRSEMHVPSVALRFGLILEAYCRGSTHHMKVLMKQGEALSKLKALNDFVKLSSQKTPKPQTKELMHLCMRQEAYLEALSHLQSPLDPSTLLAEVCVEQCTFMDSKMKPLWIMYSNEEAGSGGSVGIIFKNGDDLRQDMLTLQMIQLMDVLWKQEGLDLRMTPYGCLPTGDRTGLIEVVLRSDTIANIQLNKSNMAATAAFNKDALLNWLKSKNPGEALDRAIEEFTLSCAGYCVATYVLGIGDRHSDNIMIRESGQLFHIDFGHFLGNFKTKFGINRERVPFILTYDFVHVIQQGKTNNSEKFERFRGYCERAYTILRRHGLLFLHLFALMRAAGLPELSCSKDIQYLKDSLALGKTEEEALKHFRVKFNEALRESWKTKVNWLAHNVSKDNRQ
Method in brief: (§1)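 Kinase binding measured via KINOMEscan, reported as affinity.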

kinase enzymes [1] = biological target: T3, kinase enzymes (Homo sapiens, UniProt P42336); experiment: Enzyme binding assay (KINOMEscan, DiscoveRx), further kinases of Table A; conditions: PIK3Cα_h
T3 construct: purchased DiscoveRx Corporation, San Diego (contract service, KINOMEscan)
Method in brief: as §1

kinase enzymes [2] = biological target: T4, kinase enzymes (Homo sapiens, UniProt P42345); experiment: as above; conditions: MTOR_h
T4 construct: purchased DiscoveRx Corporation, San Diego (contract service, KINOMEscan)
Method in brief: as §1

kinase enzymes [3] = biological target: T5, kinase enzymes (Homo sapiens, UniProt P48736); experiment: as above; conditions: PIK3Cγ_h
T5 construct: purchased DiscoveRx Corporation, San Diego (contract service, KINOMEscan)
Method in brief: as §1

[4] = tested on: Akt phosphorylated at Ser473 in PC-3 cells; experiment: Cellular assay: phosphorylation of Akt at Ser473 in PC-3 cells (MSD ELISA); format: cell-based; conditions: PC-3 cells, 60 min compound incubation, MSD ELISA, read-out: IC50 pAkt_S473
Method in brief: (§2)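 Electrochemiluminescent sandwich ELISA read-out: phospho-specific capture (Ser473 or Thr308), Sulfo-tag anti-total Akt detection, signal proportional to phospho-Akt. Cells treated 60 min at 37° C with compound, DMSO 0.3%. IC50 fitted from five concentrations.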

[5] = tested on: Akt phosphorylated at Thr308 in PC-3 cells; experiment: Cellular assay: phosphorylation of Akt at Thr308 in PC-3 cells (MSD ELISA); format: cell-based; conditions: PC-3 cells, 60 min compound incubation, MSD ELISA, read-out: IC50 pAkt_Thr308
Method in brief: as §2

T5 sequence (P48736 whole entry): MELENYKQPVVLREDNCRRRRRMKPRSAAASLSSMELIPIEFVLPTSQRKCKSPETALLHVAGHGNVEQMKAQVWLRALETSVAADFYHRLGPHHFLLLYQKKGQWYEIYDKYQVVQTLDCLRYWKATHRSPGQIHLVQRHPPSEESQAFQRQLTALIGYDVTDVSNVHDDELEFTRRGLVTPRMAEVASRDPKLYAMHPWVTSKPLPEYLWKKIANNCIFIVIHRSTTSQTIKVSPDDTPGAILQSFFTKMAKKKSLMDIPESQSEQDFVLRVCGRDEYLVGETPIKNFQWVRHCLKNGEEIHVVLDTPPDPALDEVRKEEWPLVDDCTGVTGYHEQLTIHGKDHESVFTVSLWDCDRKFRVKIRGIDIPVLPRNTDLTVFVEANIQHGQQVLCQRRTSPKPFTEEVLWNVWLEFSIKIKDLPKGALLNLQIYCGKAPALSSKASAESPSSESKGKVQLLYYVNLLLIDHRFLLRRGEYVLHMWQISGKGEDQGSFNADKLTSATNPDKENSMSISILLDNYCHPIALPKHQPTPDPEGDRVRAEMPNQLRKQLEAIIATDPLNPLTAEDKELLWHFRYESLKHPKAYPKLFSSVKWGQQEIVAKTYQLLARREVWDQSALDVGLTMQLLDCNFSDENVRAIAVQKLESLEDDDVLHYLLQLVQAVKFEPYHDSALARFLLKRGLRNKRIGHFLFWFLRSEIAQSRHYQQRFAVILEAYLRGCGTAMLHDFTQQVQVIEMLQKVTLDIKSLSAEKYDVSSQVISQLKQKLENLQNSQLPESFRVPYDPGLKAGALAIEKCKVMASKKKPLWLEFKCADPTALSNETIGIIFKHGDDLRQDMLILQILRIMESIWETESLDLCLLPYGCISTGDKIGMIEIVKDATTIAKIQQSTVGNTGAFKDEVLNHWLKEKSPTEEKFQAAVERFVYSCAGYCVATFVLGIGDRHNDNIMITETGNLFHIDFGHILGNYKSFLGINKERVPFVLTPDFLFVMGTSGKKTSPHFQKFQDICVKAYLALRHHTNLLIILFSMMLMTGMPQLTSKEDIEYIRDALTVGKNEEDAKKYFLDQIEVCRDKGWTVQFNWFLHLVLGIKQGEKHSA
T3 sequence (P42336 whole entry): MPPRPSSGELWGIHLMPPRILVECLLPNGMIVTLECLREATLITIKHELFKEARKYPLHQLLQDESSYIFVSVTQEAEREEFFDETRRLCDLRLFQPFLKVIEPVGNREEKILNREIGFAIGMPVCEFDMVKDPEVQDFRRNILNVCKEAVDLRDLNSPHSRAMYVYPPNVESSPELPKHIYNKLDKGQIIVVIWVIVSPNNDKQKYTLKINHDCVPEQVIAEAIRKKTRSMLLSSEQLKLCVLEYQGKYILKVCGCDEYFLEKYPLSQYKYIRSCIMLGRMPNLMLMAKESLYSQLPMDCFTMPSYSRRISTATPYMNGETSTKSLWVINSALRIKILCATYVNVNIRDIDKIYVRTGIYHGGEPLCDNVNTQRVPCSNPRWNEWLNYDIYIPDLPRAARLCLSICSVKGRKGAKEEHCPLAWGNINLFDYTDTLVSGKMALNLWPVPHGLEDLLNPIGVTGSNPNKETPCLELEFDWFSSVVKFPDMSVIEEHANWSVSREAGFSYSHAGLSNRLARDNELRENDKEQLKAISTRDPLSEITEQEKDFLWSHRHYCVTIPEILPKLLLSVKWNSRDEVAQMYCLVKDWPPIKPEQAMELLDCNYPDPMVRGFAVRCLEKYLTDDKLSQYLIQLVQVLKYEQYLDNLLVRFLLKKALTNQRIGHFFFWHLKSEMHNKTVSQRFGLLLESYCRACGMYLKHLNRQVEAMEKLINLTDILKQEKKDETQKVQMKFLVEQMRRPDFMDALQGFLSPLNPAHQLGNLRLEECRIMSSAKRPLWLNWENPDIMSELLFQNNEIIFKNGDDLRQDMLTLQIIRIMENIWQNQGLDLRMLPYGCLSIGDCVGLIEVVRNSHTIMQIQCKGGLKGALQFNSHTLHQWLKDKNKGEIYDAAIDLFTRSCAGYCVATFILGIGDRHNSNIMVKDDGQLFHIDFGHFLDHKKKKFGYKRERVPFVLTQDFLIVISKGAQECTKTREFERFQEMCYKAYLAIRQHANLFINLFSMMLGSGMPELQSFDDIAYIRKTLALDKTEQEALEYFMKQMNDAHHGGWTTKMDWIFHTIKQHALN
T1 sequence (P42338 whole entry): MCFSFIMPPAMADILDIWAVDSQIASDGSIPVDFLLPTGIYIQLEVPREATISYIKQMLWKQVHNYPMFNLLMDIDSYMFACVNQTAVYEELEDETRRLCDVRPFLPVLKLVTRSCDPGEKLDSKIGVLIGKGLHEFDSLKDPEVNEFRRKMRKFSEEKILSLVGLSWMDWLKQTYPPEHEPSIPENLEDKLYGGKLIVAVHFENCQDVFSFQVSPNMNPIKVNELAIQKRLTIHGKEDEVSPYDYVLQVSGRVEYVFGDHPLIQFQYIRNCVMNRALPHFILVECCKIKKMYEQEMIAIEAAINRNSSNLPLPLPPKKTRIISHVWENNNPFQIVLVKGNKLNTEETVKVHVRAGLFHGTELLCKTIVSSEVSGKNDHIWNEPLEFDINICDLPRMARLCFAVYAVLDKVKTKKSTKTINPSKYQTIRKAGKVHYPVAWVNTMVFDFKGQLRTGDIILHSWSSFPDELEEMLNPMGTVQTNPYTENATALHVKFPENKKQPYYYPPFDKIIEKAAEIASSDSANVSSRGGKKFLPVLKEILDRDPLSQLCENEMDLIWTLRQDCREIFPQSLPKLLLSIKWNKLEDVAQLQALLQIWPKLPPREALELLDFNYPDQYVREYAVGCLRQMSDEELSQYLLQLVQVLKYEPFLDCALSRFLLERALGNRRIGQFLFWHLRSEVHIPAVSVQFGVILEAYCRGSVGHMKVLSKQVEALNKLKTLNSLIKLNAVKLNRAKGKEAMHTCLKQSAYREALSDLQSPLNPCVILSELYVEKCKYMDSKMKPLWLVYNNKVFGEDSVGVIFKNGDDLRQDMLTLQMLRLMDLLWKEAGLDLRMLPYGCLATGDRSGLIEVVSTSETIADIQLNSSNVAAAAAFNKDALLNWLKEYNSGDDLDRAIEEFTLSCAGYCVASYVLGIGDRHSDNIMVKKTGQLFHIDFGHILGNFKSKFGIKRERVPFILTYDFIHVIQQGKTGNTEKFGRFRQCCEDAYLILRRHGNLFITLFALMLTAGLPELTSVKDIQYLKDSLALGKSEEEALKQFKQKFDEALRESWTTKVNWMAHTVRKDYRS

SMILES	Kd (PI3Kβ)	Kd (PI3Kδ)	Kd (kinase enzymes [1])	Kd (kinase enzymes [2])	Kd (kinase enzymes [3])	IC50 ([4]; Homo sapiens, PC-3, 1 h)	IC50 ([5]; Homo sapiens, PC-3, 1 h)	melting point	IC50 [4]	IC50 [5]
CC(Nc1ccc(F)c(F)c1)c1cc(CO)cc2ncc(N3CCOCC3)nc12 (centres unmarked) [Compound 303]	9 nM	457 nM	3550 nM	18600 nM	3890 nM	87 nM	79 nM	138 °C		
CC(Nc1cc(F)cc(F)c1)c1cc(CN2CC3(C2)CS(=O)(=O)C3)cc2ncc(N3CCOCC3)nc12 (single isomer, unassigned) [Compound 161]	776 nM	> 30200 nM	> 30200 nM	> 30200 nM	> 30200 nM			228 °C	> 513 nM	> 513 nM
CC(c1cc(C(=O)O)cc2ncc(N3CCOCC3)nc12)N(C)c1cccc(F)c1 (centres unmarked) [Compound 98]	47 nM	955 nM	479 nM	2240 nM	437 nM	> 513 nM	> 513 nM	240 °C		
COc1cc(F)cc(N2CCCC2c2cc(C(=O)N(C)C)cc3ncc(N4CCOCC4)nc23)c1 (centres unmarked) [Compound 32]	1 nM	85 nM	120 nM	> 30200 nM	646 nM	12 nM	17 nM	80 °C		
CC(Nc1ccc(F)c(F)c1)c1cc(C(=O)N2CCC[C@H](O)C2)cc2ncc(N3CCOCC3)nc12 (single isomer, unassigned) [Compound 302a]	1320 nM	> 30200 nM	> 30200 nM	> 30200 nM	> 30200 nM	> 513 nM	> 513 nM	135 °C		
CCc1cccc(NC(C)c2cc(C(=O)N3CCOCC3)cc3ncc(N4CCOCC4)nc23)c1 (centres unmarked) [Compound 125]	68 nM	5890 nM	6460 nM	> 30200 nM	> 30200 nM	> 513 nM	> 513 nM	80 °C		
O=C(c1cc(C2CCCN2c2cc(F)cc(F)c2)c2nc(N3CCOCC3)cnc2c1)N1CC(CO)C1 (centres unmarked) [Compound 63]	0.5 nM	27 nM	79 nM	8130 nM	891 nM	9 nM	4 nM	100 °C		
CC(Nc1cc(F)cc(F)c1)c1cc(C(=O)NC(C)(C)CO)cc2ncc(N3CCOCC3)nc12 (centres unmarked) [Compound 169]	8 nM	1120 nM	4070 nM	18600 nM	5370 nM	200 nM	102 nM	217 °C		
O=C(c1cc(C2CCCN2c2cc(F)cc(F)c2)c2nc(N3CCOCC3)cnc2c1)N1CC(O)C1 (centres unmarked) [Compound 65]	1 nM	17 nM	38 nM	10700 nM	200 nM	6 nM	2 nM	80 °C		
CN1CCN(C(=O)c2cc(C3CCCN3c3cc(F)cc(F)c3)c3nc(N4CCOCC4)cnc3c2)CC1 (single isomer, unassigned) [Compound 57]	0.4 nM	31 nM	49 nM	25100 nM	525 nM			80 °C	~5 nM	4 nM
CC(Oc1cccc(F)c1)c1cc(C(=O)NCCO)cc2ncc(N3CCOCC3)nc12 (single isomer, unassigned) [Compound 334b]	457 nM	7590 nM	21400 nM	17400 nM	11000 nM			134 °C	> 513 nM	> 513 nM
CCN1CCN(C(=O)c2cc(C(C)Nc3cccc(F)c3)c3nc(N4CCOCC4)cnc3c2)CC1 (single isomer, unassigned) [Compound 113]	1020 nM	> 30200 nM	> 30200 nM	> 30200 nM	> 10000 nM			307 °C	> 513 nM	> 513 nM
CN(C)C(=O)c1cc(NCc2ccc(F)cc2)c2nc(N3CCOCC3)cnc2c1 [Compound 400]	24 nM	1590 nM	2340 nM	26300 nM	18600 nM	457 nM	~372 nM	80 °C		
CC(Nc1cccc(F)c1)c1cc(C(=O)N2CCC[C@H](O)C2)cc2ncc(N3CCOCC3)nc12 (single isomer, unassigned) [Compound 320a]	2 nM	182 nM	513 nM	> 30200 nM	4470 nM	20 nM	17 nM	110 °C		
CNCCOCCN(C)C(=O)c1cc(C(C)Nc2cc(F)c(F)c(F)c2)c2nc(N3CCOCC3)cnc2c1 (single isomer, unassigned) [Compound 315b]	1 nM	162 nM	2750 nM	> 30200 nM	5490 nM			90 °C	~110 nM	~85 nM
CNCCN(C)C(=O)c1cc(C(C)Nc2cc(F)c(C(F)(F)F)c(F)c2)c2nc(N3CCOCC3)cnc2c1 (centres unmarked) [Compound 224]	186 nM	4470 nM	27500 nM	> 30200 nM	> 30200 nM	468 nM	> 513 nM	163 °C		
CC(Nc1cc(F)cc(F)c1)c1cc(C(=O)N(C)C)cc2ncc(N3CCOCC3)nc12 (centres unmarked) [Compound 11]	1 nM	275 nM	631 nM	> 30200 nM	2510 nM	81 nM	42 nM	228 °C		
O=C(NCCO)c1cc(NCc2cccc(F)c2C2CCNCC2)c2nc(N3CCOCC3)cnc2c1 [Compound 317]	13 nM	708 nM	6170 nM	> 30200 nM	20900 nM	> 513 nM	> 513 nM	167 °C		
CC(Nc1cc(F)cc(F)c1)c1cc(CN2CCOCC2)cc2ncc(N3CCOCC3)nc12 (centres unmarked) [Compound 168]	17 nM	1860 nM	3630 nM	> 30200 nM	> 30200 nM	214 nM	112 nM	165 °C		
O=C(NCCCO)c1cc(C2CCCN2c2cc(F)cc(F)c2)c2nc(N3CCOCC3)cnc2c1 (centres unmarked) [Compound 66]	2 nM	79 nM	65 nM	17000 nM	676 nM	13 nM	6 nM	80 °C		
O=C(c1cc(C2CCCN2c2cc(F)cc(F)c2)c2nc(N3CCOCC3)cnc2c1)N1CCS(=O)(=O)CC1 (single isomer, unassigned) [Compound 43]	316 nM	7240 nM	4680 nM	> 30200 nM	1100 nM			80 °C	> 513 nM	331 nM
CC(Nc1ccc(F)c(F)c1)c1cc(C(=O)N2CCN3CCC[C@H]3C2)cc2ncc(N3CCOCC3)nc12 (single isomer, unassigned) [Compound 287b]	27 nM	2950 nM	9330 nM	> 30200 nM	> 30200 nM	> 513 nM	417 nM	95 °C		
